# In PubChem BioAssay AID1963863 (Molecular Pharmacology Branch, DTP, NCI, 2024):
# Values joined by “and” are separate entries in the source; they are usually repeats but may differ in a detail not shown here. Equal entries are not always repeated.
# System: 931267-113-T-J1-PDC KRAS spheroid with HUVEC/MSC, viability
# Experiment: Anticancer human tumor 931267-113-T-J1-PDC patient-derived colon adenocarcinoma cell line growth inhibition [KRAS2]
# Conditions: for viability, T/C: stronger effect = lower value
# Text: Multicellular complex tumor spheroid response to RAS pathway inhibitors in combination with a targeted agents in patient-derived cell lines with oncogenic KRAS variants from multiple cancer types
# A high-throughput screen of multi-cell type tumor spheroids was designed to identify active combinations of targeted small molecules and KRAS pathway inhibitors. Complex spheroids include a stromal component modeled by human endothelial cells (HUVEC) and fibroblasts modeled by human mesenchymal stem cells (MSCs). The concentration ranges selected for each drug and investigational agent were based upon clinically achievable concentrations if the clinical Cmax of the agent was known.
# Compounds. The drugs and investigational agents: BI-3406 (NSC825286), BAY-293 (NSC824723), batoprotafib (TNO155; NSC825523), sotorasib (AMG 510; NSC818433), MRTX1257 (NSC819558), elimusertib (BAY 1895344; NSC800525), molibresib (GSK525762; NSC774829), temuterkib (LY3214996; NSC803410), venetoclax (NSC766270), alisertib (NSC759677), olaparib (NSC753686), talazoparib (NSC767125), erdafitinib (NSC781556), ipatasertib (NSC767898), cabozantinib (NSC761068), nintedanib (NSC756659), abemaciclib (NSC768073), docetaxel (NSC628503), trametinib (NSC758246), and sapanisertib (NSC764658) were obtained from the National Cancer Institute (NCI) Developmental Therapeutics Program Chemical Repository. The FDA-approved anticancer drug set is available from the Developmental Therapeutics Program. […] The stock solutions were prepared in dimethyl sulfoxide (DMSO, Sigma-Aldrich, St. Louis, MO, cat. D2650) at 800-fold the tested concentration and stored at -70 degrees C prior to their use. All drugs and investigational agents were tested over a range starting from a high concentration at or near the clinical Cmax and decreasing in half-log increments. If the clinical Cmax for an agent had not been determined, the highest concentration tested was 10 microM.
# Cell Culture. All cells were maintained in an incubator at 37 degrees C and 5% CO2 with 95% humidity. The PDC lines were cultured according to standard operating procedures established by the NCI PDMR (https://pdmr.cancer.gov/sops/default.htm). Briefly, all PDCs were thawed and cultured in Matrigel-coated flasks prepared with a working solution of 1X Ham's F-12 nutrient mix, without supplementation (Invitrogen, Waltham, MA, cat. 11765054), 100 U/mL penicillin-streptomycin (Invitrogen, cat. 15140122), and 2.5% Matrigel (Corning Inc., Corning, NY, cat. 354248) for the first three passages. All PDCs were cultured in complete DMEM/F-12 media containing advanced DMEM/F-12 (Invitrogen, cat. 12634028), 4.9% defined fetal bovine serum, heat inactivated (HyClone Laboratories Inc., Logan, UT, cat. SH30070.03HI), 389 ng/mL hydrocortisone (Sigma-Aldrich, cat. H4001), 9.7 ng/mL human EGF recombinant protein (Invitrogen, cat. PHG0313), 23.4 microg/mL adenine (Sigma-Aldrich, cat. A2786), 97.3 U/mL penicillin-streptomycin (Invitrogen, cat. 15140122), 1.9 mM L-glutamine (Invitrogen, cat. 25030081), and 9.7 microM Y-27632 dihydrochloride (Tocris Bioscience, Bristol, United Kingdom, cat. 1254). The PDCs were cultured in complete DMEM/F12 media without 9.7 microM Y-27632 dihydrochloride for at least two passages prior to the screen. The established cell line HOP-62 was cultured in RPMI 1640 medium, HEPES (Invitrogen, cat. 22400105) with 10% defined fetal bovine serum (HyClone Laboratories Inc., cat. SH30070.03) and 2 mM L-glutamine (Invitrogen, cat. 25030081). The pooled donor HUVEC were cultured in endothelial cell growth medium 2 (PromoCell, Heidelberg, Germany, cat. C-22011) and the hMSC were cultured in mesenchymal stem cell growth medium 2 (PromoCell, cat. C-28009). For all experiments, HUVEC and hMSC were used at passages </=5, while the malignant cell lines were used at passages </=15. […]
# [1] = compound alone, run of 08/19/2021
# [2] = compound alone, run of 08/26/2021
# [3] = compound alone, run of 09/02/2021
# 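Further: compound exposure lasted 7 days before the readout.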
# 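Wherever viability, T/C is given: 100% = DMSO vehicle control viability.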
SMILES,"viability, T/C (compound 0.1 µM)","viability, T/C (compound 0.0316 µM)",IC50 (curve of compound),"viability, T/C (compound 0.316 µM)","viability, T/C (compound 1 µM)","viability, T/C (compound 3.16 µM)","viability, T/C (compound 10 µM)",also measured
C=CC(=O)N1CCN(c2nc(=O)n(-c3c(C)ccnc3C(C)C)c3nc(-c4c(O)cccc4F)c(F)cc23)C(C)C1 (configuration not stated),92.7% [middle of 17 runs],,,,,,,IC50 [1]: > 10 µM; IC50 [2]: > 10 µM; IC50 [3]: > 10 µM
C=CC(=O)N1CCN(c2nc(OCC3CCCN3C)nc3c2CCN(c2cccc4cccc(C)c24)C3)CC1CC#N (configuration not stated),,,,,,,,IC50 [2]: 1.65 µM [middle of 5 runs]; IC50 [3]: 1.62 µM [middle of 5 runs]
CC(=O)Nc1cccc(-n2c(=O)n(C3CC3)c(=O)c3c(Nc4ccc(I)cc4F)n(C)c(=O)c(C)c32)c1,,14% [middle of 5 runs],9.89 nM [middle of 5 runs],,,,,"viability, T/C (compound 0.0001 µM): 92.7% [middle of 5 runs]; viability, T/C (compound 0.000316 µM): 89.7% [middle of 5 runs]; viability, T/C (compound 0.001 µM): 84.2% [middle of 5 runs]; viability, T/C (compound 0.00316 µM): 64.2% [middle of 5 runs]; viability, T/C (compound 0.01 µM): 55% [middle of 5 runs]"
CC(=O)OC12COC1CC(O)C1(C)C(=O)C(O)C3=C(C)C(OC(=O)C(O)C(NC(=O)OC(C)(C)C)c4ccccc4)CC(O)(C(OC(=O)c4ccccc4)C21)C3(C)C (configuration not stated),84.7% [middle of 5 runs],91.1% [middle of 5 runs],> 3.16 µM,86.2% [middle of 5 runs],,,,
CC(C)NCC(C(=O)N1CCN(c2ncnc3c2C(C)CC3O)CC1)c1ccc(Cl)cc1 (configuration not stated),,91.2% [middle of 5 runs],,89.6% [middle of 5 runs],78.3% [middle of 5 runs],65.2% [middle of 5 runs],42.5% [middle of 5 runs],
CC(C)n1nc(-c2ccc3oc(N)nc3c2)c2c(N)ncnc21,23.9% [middle of 5 runs],26.9% [middle of 5 runs],,,,,,"viability, T/C (compound 0.000316 µM): 90.9% [middle of 5 runs]; viability, T/C (compound 0.001 µM): 92.8% [middle of 5 runs]; viability, T/C (compound 0.00316 µM): 66.5% [middle of 5 runs]"
CC1(C)CCC(CN2CCN(c3ccc(C(=O)NS(=O)(=O)c4ccc(NCC5CCOCC5)c([N+](=O)[O-])c4)c(Oc4cnc5[nH]ccc5c4)c3)CC2)=C(c2ccc(Cl)cc2)C1,89.5% [middle of 5 runs],99.5% [middle of 5 runs],2.34 µM [middle of 5 runs],91.4% [middle of 5 runs],96.9% [middle of 5 runs],33.6% [middle of 5 runs],10.7% [middle of 5 runs],
CC1COCCN1c1cc(-c2ccnn2C)c2ccnc(-c3ccn[nH]3)c2n1 (configuration not stated),23.9% [middle of 5 runs],,54.7 nM [middle of 5 runs],20.2% [middle of 5 runs],21.8% [middle of 5 runs],20.6% [middle of 5 runs],,
CC1OCC2(CCN(c3cnc(Sc4ccnc(N)c4Cl)c(N)n3)CC2)C1N (configuration not stated),,97.1% and 83.5% and 83%,> 10 µM,,,,,IC50 [1]: > 10 µM; IC50 [2]: > 10 µM; IC50 [3]: > 10 µM
CCN1CCN(Cc2ccc(Nc3ncc(F)c(-c4cc(F)c5nc(C)n(C(C)C)c5c4)n3)nc2)CC1,70% [middle of 5 runs],70.4% [middle of 5 runs],> 1 µM and 0.595 µM and 0.96 µM,65% [middle of 5 runs],48.4% [middle of 5 runs],,,"viability, T/C (compound 0.00316 µM): 85.5% [middle of 5 runs]; viability, T/C (compound 0.01 µM): 88.8% [middle of 5 runs]"
CCNC(=O)CC1N=C(c2ccc(Cl)cc2)c2cc(OC)ccc2-n2c(C)nnc21 (configuration not stated),83% [middle of 5 runs],92.4% [middle of 5 runs],,72.3% [middle of 5 runs],60.5% [middle of 5 runs],47.1% [middle of 5 runs],40.2% [middle of 5 runs],
CN(C)C/C=C/C(=O)Nc1cc2c(Nc3ccc(F)c(Cl)c3)ncnc2cc1O[C@H]1CCOC1,79% [middle of 5 runs],,> 0.1 µM,,,,,"viability, T/C (compound 0.000316 µM): 94.5% [middle of 5 runs]; viability, T/C (compound 0.01 µM): 79.1% [middle of 5 runs]"
CNCc1ccccc1-c1csc(C(C)Nc2nc(C)nc3cc(OC)c(OC)cc23)c1 (configuration not stated),,,,,,,0.16% [middle of 14 runs],IC50 [2]: 1.13 µM [middle of 5 runs]; IC50 [3]: 952 nM [middle of 5 runs]
COC(=O)c1ccc2c(C(=Nc3ccc(N(C)C(=O)CN4CCN(C)CC4)cc3)c3ccccc3)c(O)[nH]c2c1,78.5% [middle of 5 runs],85.8% [middle of 5 runs],1.2 µM [middle of 5 runs],69.6% [middle of 5 runs],59.2% [middle of 5 runs],0.6% [middle of 4 runs],0.39% [middle of 4 runs],
COc1cc(Nc2ncc3c(n2)-c2ccc(Cl)cc2C(c2c(F)cccc2OC)=NC3)ccc1C(=O)O,79.6% [middle of 5 runs],83.6% [middle of 5 runs],> 10 µM,79.4% [middle of 5 runs],83.3% [middle of 5 runs],85.9% [middle of 5 runs],72.5% [middle of 5 runs],
COc1cc(OC)cc(N(CCNC(C)C)c2ccc3ncc(-c4cnn(C)c4)nc3c2)c1,101% [middle of 5 runs],,4.66 µM [middle of 4 runs],107% [middle of 5 runs],107% [middle of 5 runs],,0.45% [middle of 4 runs],
COc1cc2nc(C)nc(NC(C)c3cc(N)cc(C(F)(F)F)c3)c2cc1OC1CCOC1 (configuration not stated),,,,,,,,IC50 [2]: 4.74 µM [middle of 4 runs]; IC50 [3]: 4.4 µM [middle of 6 runs]
COc1cc2nccc(Oc3ccc(NC(=O)C4(C(=O)Nc5ccc(F)cc5)CC4)cc3)c2cc1OC,,,> 10 µM and 6.16 µM and 10 µM,96.5% [middle of 5 runs],105% [middle of 5 runs],60.4% [middle of 5 runs],,
Cn1nccc1Nc1nccc(-c2cc3c(s2)C(C)(C)N(CCN2CCOCC2)C3=O)n1,,91% [middle of 5 runs],574 nM [middle of 4 runs],68.6% [middle of 5 runs],30.6% [middle of 5 runs],7.98% [middle of 5 runs],4.32% [middle of 5 runs],
Cn1ncnc1[C@H]1c2n[nH]c(=O)c3cc(F)cc(c23)N[C@@H]1c1ccc(F)cc1,,94.4% [middle of 5 runs],> 0.1 µM,,,,,"viability, T/C (compound 0.000316 µM): 102% [middle of 5 runs]; viability, T/C (compound 0.001 µM): 97.8% [middle of 5 runs]; viability, T/C (compound 0.00316 µM): 98.9% [middle of 5 runs]; viability, T/C (compound 0.01 µM): 88.3% [middle of 5 runs]"
O=C(c1cc(Cc2n[nH]c(=O)c3ccccc23)ccc1F)N1CCN(C(=O)C2CC2)CC1,93% [middle of 5 runs],83% [middle of 5 runs],> 10 µM,87.8% [middle of 5 runs],,88.3% [middle of 5 runs],80.5% [middle of 5 runs],
